{"source": "PubChem BioAssay AID1919004", "about": "(Molecular Pharmacology Branch, DTP, NCI, 2023)", "system": "883617-216-R-J1-PDC complex spheroids, growth, % test/control", "assay": "Anticancer human tumor 883617-216-R-J1-PDC patient-derived bladder carcinoma cell line growth inhibition [AhR]", "conditions": "for IC50: curve of first compound; for viability, T/C: stronger effect = lower value", "outline": "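Agents were dosed in half-log steps down from roughly clinical Cmax, or from 10 microM where Cmax was unknown, alone and with AhR antagonists. Read-out: percent test/control growth of tumor spheroids containing HUVEC and MSC stromal cells.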", "key": {"[1]": {"conditions": "second compound 0.1 µM, first compound 0.0316 µM"}, "[2]": {"conditions": "second compound 0.1 µM, first compound 0.1 µM"}, "[3]": {"conditions": "second compound 0.316 µM, first compound 0.0316 µM"}, "[4]": {"conditions": "second compound 0.316 µM, first compound 0.1 µM"}, "[5]": {"conditions": "second compound 1 µM, first compound 0.0316 µM"}, "[6]": {"conditions": "second compound 1 µM, first compound 0.1 µM"}, "[7]": {"conditions": "second compound 3.16 µM, first compound 0.0316 µM"}, "[8]": {"conditions": "second compound 3.16 µM, first compound 0.1 µM"}, "[9]": {"conditions": "second compound 10 µM, first compound 0.0316 µM"}, "[10]": {"conditions": "second compound 10 µM, first compound 0.1 µM"}}}
{"compound": "Cn1ncnc1C1c2n[nH]c(=O)c3cc(F)cc(c23)NC1c1ccc(F)cc1", "note": "(stereo not given) + CC(CO)NC(=O)c1cc(-c2ccc(Cl)cc2)nn(-c2cnn(C)c2)c1=O;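 further: exposure lasted 7 days after dosing on day 3 of spheroid growth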", "values": [{"measurement": "IC50", "setting": "second compound 0.1 µM", "value": "> 100", "unit": "nM"}, {"measurement": "IC50", "setting": "second compound 0.316 µM", "value": "> 100", "unit": "nM"}, {"measurement": "IC50", "setting": "second compound 1 µM", "value": "> 100", "unit": "nM"}, {"measurement": "IC50", "setting": "second compound 3.16 µM", "value": "> 100", "unit": "nM"}, {"measurement": "IC50", "setting": "second compound 10 µM", "value": "> 100", "unit": "nM"}, {"measurement": "viability, T/C", "setting": "second compound 0.1 µM, first compound 0.000316 µM", "value": 72.7, "unit": "%"}, {"measurement": "viability, T/C", "setting": "second compound 0.1 µM, first compound 0.001 µM", "value": 96.6, "unit": "%"}, {"measurement": "viability, T/C", "setting": "second compound 0.1 µM, first compound 0.00316 µM", "value": 77.3, "unit": "%"}, {"measurement": "viability, T/C", "setting": "second compound 0.1 µM, first compound 0.01 µM", "value": 57.7, "unit": "%"}, {"measurement": "viability, T/C", "setting": "[1]", "value": 55.6, "unit": "%"}, {"measurement": "viability, T/C", "setting": "[2]", "value": 93, "unit": "%"}, {"measurement": "viability, T/C", "setting": "second compound 0.316 µM, first compound 0.000316 µM", "value": 90.4, "unit": "%"}, {"measurement": "viability, T/C", "setting": "second compound 0.316 µM, first compound 0.001 µM", "value": 92.8, "unit": "%"}, {"measurement": "viability, T/C", "setting": "second compound 0.316 µM, first compound 0.00316 µM", "value": 78.6, "unit": "%"}, {"measurement": "viability, T/C", "setting": "second compound 0.316 µM, first compound 0.01 µM", "value": 75.8, "unit": "%"}, {"measurement": "viability, T/C", "setting": "[3]", "value": 86, "unit": "%"}, {"measurement": "viability, T/C", "setting": "[4]", "value": 98.7, "unit": "%"}, {"measurement": "viability, T/C", "setting": "second compound 1 µM, first compound 0.000316 µM", "value": 59.7, "unit": "%"}, {"measurement": "viability, T/C", "setting": "second compound 1 µM, first compound 0.001 µM", "value": 92.4, "unit": "%"}, {"measurement": "viability, T/C", "setting": "second compound 1 µM, first compound 0.00316 µM", "value": 75.1, "unit": "%"}, {"measurement": "viability, T/C", "setting": "second compound 1 µM, first compound 0.01 µM", "value": 59.8, "unit": "%"}, {"measurement": "viability, T/C", "setting": "[5]", "value": 87.6, "unit": "%"}, {"measurement": "viability, T/C", "setting": "[6]", "value": 89.9, "unit": "%"}, {"measurement": "viability, T/C", "setting": "second compound 3.16 µM, first compound 0.000316 µM", "value": 77.3, "unit": "%"}, {"measurement": "viability, T/C", "setting": "second compound 3.16 µM, first compound 0.001 µM", "value": 51, "unit": "%"}, {"measurement": "viability, T/C", "setting": "second compound 3.16 µM, first compound 0.00316 µM", "value": 123, "unit": "%"}, {"measurement": "viability, T/C", "setting": "second compound 3.16 µM, first compound 0.01 µM", "value": 82.8, "unit": "%"}, {"measurement": "viability, T/C", "setting": "[7]", "value": 50.2, "unit": "%"}, {"measurement": "viability, T/C", "setting": "[8]", "value": 69.2, "unit": "%"}, {"measurement": "viability, T/C", "setting": "second compound 10 µM, first compound 0.000316 µM", "value": 78.6, "unit": "%"}, {"measurement": "viability, T/C", "setting": "second compound 10 µM, first compound 0.001 µM", "value": 68.8, "unit": "%"}, {"measurement": "viability, T/C", "setting": "second compound 10 µM, first compound 0.00316 µM", "value": 70.6, "unit": "%"}, {"measurement": "viability, T/C", "setting": "second compound 10 µM, first compound 0.01 µM", "value": 72, "unit": "%"}, {"measurement": "viability, T/C", "setting": "[9]", "value": 55.7, "unit": "%"}, {"measurement": "viability, T/C", "setting": "[10]", "value": 80.9, "unit": "%"}]}
{"compound": "O=C(C=Cc1cccc(S(=O)(=O)Nc2ccccc2)c1)NO", "note": "+ CC(CO)NC(=O)c1cc(-c2ccc(Cl)cc2)nn(-c2cnn(C)c2)c1=O", "values": [{"measurement": "IC50", "setting": "second compound 0.1 µM", "value": 3570, "unit": "nM"}, {"measurement": "IC50", "setting": "second compound 0.316 µM", "value": 3500, "unit": "nM"}, {"measurement": "IC50", "setting": "second compound 1 µM", "value": 793, "unit": "nM"}, {"measurement": "IC50", "setting": "second compound 3.16 µM", "value": 1510, "unit": "nM"}, {"measurement": "IC50", "setting": "second compound 10 µM", "value": 1820, "unit": "nM"}, {"measurement": "viability, T/C", "setting": "[1]", "value": 88.5, "unit": "%"}, {"measurement": "viability, T/C", "setting": "[2]", "value": 96.9, "unit": "%"}, {"measurement": "viability, T/C", "setting": "second compound 0.1 µM, first compound 0.316 µM", "value": 78.1, "unit": "%"}, {"measurement": "viability, T/C", "setting": "second compound 0.1 µM, first compound 1 µM", "value": 86.6, "unit": "%"}, {"measurement": "viability, T/C", "setting": "second compound 0.1 µM, first compound 3.16 µM", "value": 55, "unit": "%"}, {"measurement": "viability, T/C", "setting": "second compound 0.1 µM, first compound 10 µM", "value": 7.64, "unit": "%"}, {"measurement": "viability, T/C", "setting": "[3]", "value": 95.2, "unit": "%"}, {"measurement": "viability, T/C", "setting": "[4]", "value": 87.6, "unit": "%"}, {"measurement": "viability, T/C", "setting": "second compound 0.316 µM, first compound 0.316 µM", "value": 85.7, "unit": "%"}, {"measurement": "viability, T/C", "setting": "second compound 0.316 µM, first compound 1 µM", "value": 105, "unit": "%"}, {"measurement": "viability, T/C", "setting": "second compound 0.316 µM, first compound 3.16 µM", "value": 54.7, "unit": "%"}, {"measurement": "viability, T/C", "setting": "second compound 0.316 µM, first compound 10 µM", "value": 1.72, "unit": "%"}, {"measurement": "viability, T/C", "setting": "[5]", "value": 75.3, "unit": "%"}, {"measurement": "viability, T/C", "setting": "[6]", "value": 62.7, "unit": "%"}, {"measurement": "viability, T/C", "setting": "second compound 1 µM, first compound 0.316 µM", "value": 113, "unit": "%"}, {"measurement": "viability, T/C", "setting": "second compound 1 µM, first compound 1 µM", "value": 41.5, "unit": "%"}, {"measurement": "viability, T/C", "setting": "second compound 1 µM, first compound 3.16 µM", "value": 41.6, "unit": "%"}, {"measurement": "viability, T/C", "setting": "second compound 1 µM, first compound 10 µM", "value": 1.68, "unit": "%"}, {"measurement": "viability, T/C", "setting": "[7]", "value": 104, "unit": "%"}, {"measurement": "viability, T/C", "setting": "[8]", "value": 66, "unit": "%"}, {"measurement": "viability, T/C", "setting": "second compound 3.16 µM, first compound 0.316 µM", "value": 67.6, "unit": "%"}, {"measurement": "viability, T/C", "setting": "second compound 3.16 µM, first compound 1 µM", "value": 69.5, "unit": "%"}, {"measurement": "viability, T/C", "setting": "second compound 3.16 µM, first compound 3.16 µM", "value": 36.6, "unit": "%"}, {"measurement": "viability, T/C", "setting": "second compound 3.16 µM, first compound 10 µM", "value": 6.34, "unit": "%"}, {"measurement": "viability, T/C", "setting": "[9]", "value": 101, "unit": "%"}, {"measurement": "viability, T/C", "setting": "[10]", "value": 89.5, "unit": "%"}, {"measurement": "viability, T/C", "setting": "second compound 10 µM, first compound 0.316 µM", "value": 101, "unit": "%"}, {"measurement": "viability, T/C", "setting": "second compound 10 µM, first compound 1 µM", "value": 54, "unit": "%"}, {"measurement": "viability, T/C", "setting": "second compound 10 µM, first compound 3.16 µM", "value": 40.9, "unit": "%"}, {"measurement": "viability, T/C", "setting": "second compound 10 µM, first compound 10 µM", "value": 1.34, "unit": "%"}]}
